Source: publication PMC11462456 (Chemical Science, 2024)

Columns and labels:
[1] = Parallel artificial membrane permeability assay (PAMPA); assay type: in vitro ADME; details: 10 uM, pH 7.4, four hours
Description: 4.9 Study of membrane permeability of single-ligand and dual-ligand PROTACs Parallel artificial membrane permeability assay (PAMPA) is a non-cell based assay designed to predict passive, transcellular permeability of a test compound through a PVDF membrane filter pretreated with lipid. At a given pH a log Pe (log of effective permeability) can be determined by a UV spectrophotometer. […]
is carried out in the company of Eurofins Panlabs, 6 Research Park Dr. St. Charles, MO 63304, U.S.A. The results are attached as an excel file.
Sample preparation The test compound is prepared from a 10 mM DMSO stock solution and diluted to a single final concentration of 10 uM in donor buffer. The donor solution is placed in contact with the acceptor buffer at a single pH = 7.4 with the membrane in between and the sandwich is incubated for four hours at ambient temperature.
Reference compounds Ketoprofen, propranolol and furosemide. The reference compounds yield log Pe (10-6 cm/s) values that cover the typical range of the assay from high (Propranolol), mid (Ketoprofen) to low (Furosemide) permeability.
Analytical method UV/Vis spectrophotometer
The UV absorption is measured from 250 to 500 nm for both donor and acceptor plate.
Adjustments to the method may be made as necessary to improve detection or UV spectrum.
Data analysis The amount of compound UV absorbance is determined in the donor plate prior to starting the experiment for each compound. The UV absorbance was measured from the (1 picture or pasted object on this page, not shown here) […]
donor and acceptor plate after a four hour incubation time. The log Pe was calculated using […]
4.10 Statistical Analysis.
Data analyses were performed using GraphPad Prism 9 software. The results are presented as the mean ± standard deviation (SD) or standard error of mean (SEM). All statistical analyses were evaluated with one-way analysis of variance (ANOVAs), or unpaired Student’s t-test. The difference was considered statistically significant when P < 0.05.

[2] = Mouse serum stability by HPLC-MS/MS; assay type: in vitro ADME; details: after 2 hours of incubation, 37°C
Description: Figure S7. Dual-ligand PROTACs inhibit cancer cell growth in 2D and 3D in vitro cell cultures.
(A) 2D-cultured SKOV-3 were treated with an escalating dose of PROTACs for 48h. Cell viability was assessed by CellTiter-Glo 2D assay. EC50 values were calculated from fitted curves. (B) HCT116 spheroids were treated with an escalating dose of PROTACs for 72h (equivalent volume of DMSO as control group). Representative transmitted microscopy images at the dose of 10nM. (C) Cell viability was assessed by Cell Titer-Glo 3D assay. Both experiments were performed as three independent replicates. (D) 2D-cultured A549 cells were treated with an escalating dose of PROTACs equipped with similar linker length as dual-ligand PROTACs. Cell viability was assessed by CellTiter-Glo 2D assay.
EC50 values were calculated from fitted curves.
Eurofins Panlabs, 6 Research Park Dr. St. Charles, MO 63304, U.S.A. Compounds were incubated in the mouse serum at 37°C for certain time, and at 0, 0.5, 1, 1.5, 2 hours post incubation, the mouse serum was analyzed by HPLC-MS/MS according to the reference: Di, L. et al. (2005), Int. J. Pharm., 297 (1-2): 110-119. […] Samples were analyzed by HPLC-MS/MS and peak areas were recorded for each analyte. The area of precursor compound remaining after each of the time points relative to the amount remaining at time zero, expressed as percent, is calculated. […]

[3] = system: A549 xenograft; assay: A549 xenograft mouse model, tumor growth; assay type: in vivo; details: i.p.
Description: 4.7 Therapeutic anti-tumor evaluation
Animal experiments were carried out in accordance with the regulatory guidelines of the Ethics Committee of the Ghent University Hospital. 30 female Swiss Nude Immunodeficient mice (Crl:NU(Ico)-Foxn1nu) of 5 weeks-6 weeks old (Charles River) were subcutaneously injected with […] A549 (1:1 serum free DMEM medium: Matrigel (Corning)). 10 days post inoculation ,mice were randomized into five groups (6 mice/group) with equal average tumor volume and treatment was started: (1) the control group: Vehicle(20% PEG400 and 5% […]
2J2V group (0.1 mg/kg), (5) the 2J2V group(0.5 mg/kg).Mice were treated on Day 0, Day 2, Day 4, Day 11, Day 18 by intraperitoneal injection. Tumor growth was monitored every 3 days by caliper, and the tumor volume was calculated as 1/2 × length × width2. Body weight was monitored every 3 days by weighing scale. […]
The reduced […]
proteins were alkylated with 40 mM iodoacetamide (IAA) in the dark for 30 minutes. Then samples were acidified with 1.2% aqueous phosphoric acid and mixed with 6× volumes of 90% methanol, 100 mM TEAB, pH 7.1 (S-Trap binding buffer). The samples were loaded onto the (1 picture or pasted object on this page, not shown here)

[4] = system: BRD2, BRD3 and BRD4; assay: Mass spectrometry proteomics in A549 cells; assay type: cell-based, human; details: 10 nM, 4 hours, 7592 proteins quantified
Description: A549 cells in DMEM medium were seeded at 1×10^6 cells on a 6-well plate 24 h before […]
volume of DMSO. After 4 h, the cells were digested by trypsin, centrifuged at 250g for 5min and washed three times with PBS. Cells were resuspended in lysis buffer (50 mM triethylammonium bicarbonate (TEAB), 5% SDS (pH 7.5)), then sonicated, and clarified with centrifugation of 13,000g for 8 minutes. Each sample was reduced with 20 mM DTT, then warmed the solution first at 95 °C for 10 minutes and then at 60 °C for 1 hour. The reduced proteins were alkylated with 40 mM iodoacetamide (IAA) in the dark for 30 minutes. Then samples were acidified with 1.2% aqueous phosphoric acid and mixed with 6× volumes of 90% methanol, 100 mM TEAB, pH 7.1 (S-Trap binding buffer). The samples were loaded onto the (1 picture or pasted object on this page, not shown here)

SMILES	membrane permeability [1]	compound remained intact in mouse serum [2]	anti-tumor activity ([3]; 0.5 and 0.1 mg kg−1, Swiss nude mice)	BET protein abundance change in proteome [4]	tumor growth ([3]; higher dose of 0.5 mg kg−1, Swiss nude mice)
Cc1ncsc1-c1ccc(CNC(=O)C2CC(O)CN2C(=O)C(NC(=O)COCCOCCOCCNC(=O)CC2N=C(c3ccc(Cl)cc3)c3c(sc(C)c3C)-n3c(C)nnc32)C(C)(C)C)cc1 (stereo not drawn) [MZ1, reference compound]	very limited membrane permeability	95%	did not exhibit significant anti-tumor activity	much lower change in BET protein abundance	–
Cc1sc2c(c1C)C(c1ccc(Cl)cc1)=N[C@@H](CC(=O)NCCOCCOCCNC(=O)C[C@H](NC(=O)COCCOCCOCCOCCn1cc(CCC(=O)N[C@@H](CC(=O)NCCOCCOCCNc3cccc4c3C(=O)N(C3CCC(=O)NC3=O)C4=O)C(=O)NCCOCCOCCNc3cccc4c3C(=O)N(C3CCC(=O)NC3=O)C4=O)nn1)C(=O)NCCOCCOCCNC(=O)C[C@@H]1N=C(c3ccc(Cl)cc3)c3c(sc(C)c3C)-n3c(C)nnc31)c1nnc(C)n1-2 (stereo partly drawn) [2J2P]	high membrane permeability	–	–	–	–
Cc1ncsc1-c1ccc(C(C)NC(=O)C2CC(O)CN2C(=O)C(NC(=O)COCCOCCNC(=O)CC(NC(=O)CCc2cn(CCOCCOCCOCCOCC(=O)NC(CC(=O)NCCOCCOCCNC(=O)CC3N=C(c4ccc(Cl)cc4)c4c(sc(C)c4C)-n4c(C)nnc43)C(=O)NCCOCCOCCNC(=O)CC3N=C(c4ccc(Cl)cc4)c4c(sc(C)c4C)-n4c(C)nnc43)nn2)C(=O)NCCOCCOCC(=O)NC(C(=O)N2CC(O)CC2C(=O)NC(C)c2ccc(-c3scnc3C)cc2)C(C)(C)C)C(C)(C)C)cc1 (stereo not drawn) [2J2V]	very limited membrane permeability	88%	–	top proteins being degraded the most	potent reduction in tumor growth
